Columns and labels:
STK33 [1] = molecular target: T1, STK33 (Homo sapiens, UniProt Q9BYT3); test: NanoBRET target engagement intracellular kinase assay; format: cell-based; parameters: host or cells: HEK293 (HEK293T cultured); settings: HEK293 cells, 2 hours incubation
Method: NanoBRET Target Engagement intracellular kinase assay. HEK293T cells were cultured in […]
The cell line underwent authentication by short tandem repeat (STR) profiling at Cytogenetics and Cell Authentication Core (CCAC) at MD Anderson Cancer Center. NanoBRET Target Engagement intracellular kinase assay, K-10 assay (Cat. # N2641), K-9 assay (Cat. # N2631), transfection reagent FuGENE HD (Cat. # E2311), transfection carrier DNA (Cat. # E4881), NanoLuc-STK33 fusion vector (Cat. # NV2111), NanoLuc-RET fusion vector (Cat. # NV1951), NanoLuc-CLK1 fusion vector (Cat. # NV1131), NanoLuc-CLK2 fusion vector (Cat. # NV1141), and NanoLuc-CLK4 fusion vector (Cat. # NV1151) were purchased from Promega. The measurement of test compound engagement with cellular target protein was performed in a 384-well format according to manufacturer’s instructions. HEK293 cells were transiently transfected with NanoLuc (STK33, RET, CLK1, CLK2, and CLK4) fusion vectors. After 36 hours of transfection, cells were treated with a fixed concentration of tracer (recommended by Promega) followed by compounds (inhibitors) for 2 hours of incubation. To determine the test compound […]
0.4 nM at a fixed tracer concentration. Staurosporine was measured in parallel as a positive control.
Freshly prepared NanoBRET Nano-Glo substrate plus extracellular NanoLuc inhibitor was then added to initiate the subsequent bioluminescence resonance energy transfer (BRET) measurements using a CLARIOstar Plus BMG LABTECH plate reader. Data analysis was done by measuring the ratio of acceptor emission to donor emission (BRET ratio) and normalized by subtracting no-tracer-control-background. IC50 values were obtained by nonlinear regression using a four-parameter equation in GraphPad Prism 7 (San Diego, CA).

STK33 [2] = molecular target: T1, STK33; test: LanthaScreen binding assay (ThermoFisher SelectScreen); parameters: purchased SelectScreen Services (ThermoFisher)
Source text: In vitro biochemical assays. Several small molecule assays were outsourced to SelectScreen Services (ThermoFisher) for STK33 and for off-target kinases (data sets are available on demand).
These assays are LanthaScreen (binding assay) and Z’-LYTE (activity assay). Dose-responses were done with at least 5 different concentrations in duplicates, and parameters were optimized by calculations described below and provided with standard errors.
Calculation of Kd values for kinase inhibitors that bind to the ATP pocket of a kinase from LanthaScreen binding data. DynaFit (71) was used to fit complex equilibria where a tracer is displaced by a dilution series of a kinase inhibitor. This method relies on the concentration of inhibitor, as well as the concentration of kinase and tracer, and Kd of the tracer. The latter three parameters are tabulated by ThermoFisher for each kinase in the LanthaScreen assay panel. […]
Since Kd and Ki values are defined the same way, in other words, Kd = [E] [I] / [EI] = Ki, Kd and Ki values can be compared. […]

STK33 [3] = molecular target: T1, STK33; test: Kinase assay screening against STK33 at 500 nM; format: biochemical; parameters: purchased SelectScreen Services (ThermoFisher)
[4] = Metabolic stability assay in liver microsomes (MLM); format: in vitro ADME, mouse; settings: 2.0 µM, 0.5 mg protein/mL, NADPH; data >60 min is an extrapolated estimate
Method: (§1) Metabolic stability assay in liver microsomes. The stabilities of CDD-2110, CDD-2211, CDD-2212, CDD-2807, and CDD-3348 in liver microsomes with/without Uridine Diphosphate Glucuronic Acid (UDP-GA, a cofactor of UDP-glucuronosyltransferases) were performed and half-life was calculated as previously reported (36). Briefly, each CDD compound (2.0 μM) was incubated in the mouse or human liver microsomes (0.5 mg protein/mL) at 37°C in 1× PBS fortified with NADPH (1.0 mM) and with/without UDP-GA (2.5 mM). Alamethicin (25 µg/mL) as a pore forming agent was used for the glucuronidation (Table S2A). The samples were collected at specific time-points 0, 30, and 60 min in duplicate. The reactions were terminated by adding equivalent volume of ice-cold methanol (CH3OH) and vortexed. After centrifugation at 15000 g for 10 min, 3.0 μL of the supernatant was analyzed by Thermo TSQ Quantis MS coupled with a Thermo Vanquish UHPLC (San Jose, CA) equipped with a Luna C18 column (1 mm × 50 mm, 1.6 µm, Phenomenex, Torrance, CA). The column temperature was maintained at 40°C. CDD-2807 was monitored under the selected reaction monitoring (SRM) mode coupled with a positive electrospray ionization (ESI) source. The SRM ion pairs were 447→321 for CDD-2807.

[5] = Metabolic stability assay in liver microsomes (HLM); format: in vitro ADME, human; settings: 2.0 µM, 0.5 mg protein/mL, NADPH; data >60 min is an extrapolated estimate
Method: as §1

T1 sequence (Q9BYT3 whole entry): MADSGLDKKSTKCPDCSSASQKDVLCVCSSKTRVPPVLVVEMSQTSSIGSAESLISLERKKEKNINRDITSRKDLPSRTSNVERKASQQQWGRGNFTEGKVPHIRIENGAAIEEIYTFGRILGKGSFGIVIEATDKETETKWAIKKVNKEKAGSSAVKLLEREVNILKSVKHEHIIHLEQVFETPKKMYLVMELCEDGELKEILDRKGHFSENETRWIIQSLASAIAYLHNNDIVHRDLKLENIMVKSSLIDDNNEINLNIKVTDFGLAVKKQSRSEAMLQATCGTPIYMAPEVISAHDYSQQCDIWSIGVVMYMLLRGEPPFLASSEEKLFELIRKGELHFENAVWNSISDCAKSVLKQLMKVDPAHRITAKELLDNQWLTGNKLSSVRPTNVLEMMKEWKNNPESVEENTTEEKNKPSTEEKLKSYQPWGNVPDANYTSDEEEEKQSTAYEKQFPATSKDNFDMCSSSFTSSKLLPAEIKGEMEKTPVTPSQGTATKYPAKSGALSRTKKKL

CN(C)C1CCN(C(=O)c2ccc3[nH]nc(C#Cc4ccc(-c5ccccc5)cc4)c3c2)C1 (stereo not shown) [Compound S10]
IC50 (STK33 [1]): 8710 nM | Kd (STK33 [2]): 17.7 ± 0.7 nM

O=C(c1ccc2[nH]nc(C#Cc3ccccc3-c3ccccc3)c2c1)N1CCC2(CCCCN2)C1 (stereo not shown) [Compound S3]
IC50 (STK33 [1]): 52 nM

CN(C)C1CCN(C(=O)c2ccc3[nH]nc(Cc4ccccc4-c4ccccc4)c3c2)C1 (stereo not shown) [Compound S11]
kinase assay screening against STK33 (STK33 [3]): not passing

NC1CCN(C(=O)c2ccc3[nH]nc(C#Cc4ccccc4-c4ccccc4)c3c2)C1 (stereo not shown) [Compound S1]
IC50 (STK33 [1]): 46 nM | Metabolic stability MLM, t1/2 [4]: 42 min | Metabolic stability HLM, t1/2 [5]: 277 min

O=C(c1ccc2[nH]nc(C#Cc3ccccc3-c3ccccc3)c2c1)N1CC2(CCNCC2)C1 [Compound S7]
IC50 (STK33 [1]): 168 nM | Metabolic stability MLM, t1/2 [4]: 46 min | Metabolic stability HLM, t1/2 [5]: 235 min

CN(C)C1CCN(C(=O)c2ccc3c(c2)c(C#Cc2ccccc2-c2ccccc2)nn3C)C1 (stereo not shown) [Compound S8]
kinase assay screening against STK33 (STK33 [3]): not passing

O=C(c1ccc2[nH]nc(C#Cc3ccccc3-c3ccccc3)c2c1)N1CCC(O)C1 (stereo not shown) [Compound S2]
IC50 (STK33 [1]): 647 nM

O=C(c1ccc2[nH]nc(C#Cc3ccccc3-c3ccccc3)c2c1)N1CC2(CCCCN2)C1 [Compound S6]
IC50 (STK33 [1]): 236 nM
